Results as given in patent US7528138B2, “Pyrazolo[1,5-a]pyrimidines useful as inhibitors of protein kinases” (Vertex Pharmaceuticals Incorporated, priority 2004, dated 2009).

Columns and labels:
Assay type in all cases: biochemical
JAK3 = target: T1, JAK3 (Homo sapiens, UniProt P52333); assay: JAK3 Inhibition Assay, 33P incorporation; details: enzyme inhibition data (Ki), Table 11
T1 sequence (P52333 1-1124): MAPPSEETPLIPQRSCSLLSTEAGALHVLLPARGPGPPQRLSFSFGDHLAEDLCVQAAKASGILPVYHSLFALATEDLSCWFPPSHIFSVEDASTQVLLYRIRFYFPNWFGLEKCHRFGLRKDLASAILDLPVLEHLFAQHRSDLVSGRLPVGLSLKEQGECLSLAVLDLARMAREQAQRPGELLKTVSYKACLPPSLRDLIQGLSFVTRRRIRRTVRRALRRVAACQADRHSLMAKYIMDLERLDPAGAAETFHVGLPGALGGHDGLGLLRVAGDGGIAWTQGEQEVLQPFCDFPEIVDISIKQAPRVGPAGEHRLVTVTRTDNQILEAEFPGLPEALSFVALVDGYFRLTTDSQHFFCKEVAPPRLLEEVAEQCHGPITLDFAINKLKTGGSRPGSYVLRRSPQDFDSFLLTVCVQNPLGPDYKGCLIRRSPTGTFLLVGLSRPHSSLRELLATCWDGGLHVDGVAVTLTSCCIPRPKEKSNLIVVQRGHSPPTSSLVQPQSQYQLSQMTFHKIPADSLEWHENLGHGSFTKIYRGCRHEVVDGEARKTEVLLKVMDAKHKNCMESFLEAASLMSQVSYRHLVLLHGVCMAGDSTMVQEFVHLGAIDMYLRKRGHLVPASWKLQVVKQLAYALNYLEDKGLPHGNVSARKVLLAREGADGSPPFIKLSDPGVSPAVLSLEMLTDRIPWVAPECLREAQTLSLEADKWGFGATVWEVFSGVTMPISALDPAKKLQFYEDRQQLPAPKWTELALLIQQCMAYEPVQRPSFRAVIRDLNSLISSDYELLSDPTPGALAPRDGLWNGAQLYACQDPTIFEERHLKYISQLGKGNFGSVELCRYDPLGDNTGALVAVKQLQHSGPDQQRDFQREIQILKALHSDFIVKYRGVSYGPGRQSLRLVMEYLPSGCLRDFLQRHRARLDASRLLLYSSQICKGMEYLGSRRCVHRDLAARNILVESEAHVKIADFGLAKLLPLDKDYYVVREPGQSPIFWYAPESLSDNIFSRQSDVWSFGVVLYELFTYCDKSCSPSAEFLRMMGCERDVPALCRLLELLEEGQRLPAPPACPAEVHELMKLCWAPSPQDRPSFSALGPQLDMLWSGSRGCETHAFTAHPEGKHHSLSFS
How it was run: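 Recombinant JAK3 at 1 nM in HEPES pH 7.4 buffer with 10 mM MgCl2, 1 mM DTT and 0.01% BSA. Substrates were 5 μM ATP (200 uCi/μmole) and 1 μM poly(Glu)4Tyr, reacted 20 min at 25 °C. Stopped with TCA, and 33P incorporation counted on glass fiber filters.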

Itk = target: T2, Itk (Homo sapiens, UniProt Q08881); assay: ITK Inhibition Assay (Radiometric), radioactive-phosphate incorporation; details: enzyme inhibition data (Ki), Table 11; radiometric or UV assay not stated
T2 sequence (Q08881 1-620): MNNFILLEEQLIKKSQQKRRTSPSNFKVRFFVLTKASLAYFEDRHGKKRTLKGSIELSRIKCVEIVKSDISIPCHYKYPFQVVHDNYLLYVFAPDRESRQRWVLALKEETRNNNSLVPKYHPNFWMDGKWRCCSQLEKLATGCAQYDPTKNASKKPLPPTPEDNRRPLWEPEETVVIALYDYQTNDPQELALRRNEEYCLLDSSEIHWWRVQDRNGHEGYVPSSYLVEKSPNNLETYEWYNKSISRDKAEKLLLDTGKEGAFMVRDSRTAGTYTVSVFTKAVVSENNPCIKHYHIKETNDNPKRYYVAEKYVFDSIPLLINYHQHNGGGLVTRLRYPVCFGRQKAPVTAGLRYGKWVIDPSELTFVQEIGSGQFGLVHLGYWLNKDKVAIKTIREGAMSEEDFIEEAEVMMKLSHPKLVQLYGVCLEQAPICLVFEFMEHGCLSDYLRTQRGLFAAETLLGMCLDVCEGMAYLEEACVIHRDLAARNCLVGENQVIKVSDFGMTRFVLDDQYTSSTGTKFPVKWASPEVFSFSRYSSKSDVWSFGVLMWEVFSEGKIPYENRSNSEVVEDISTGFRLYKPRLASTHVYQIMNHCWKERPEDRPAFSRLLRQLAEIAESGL
How it was run: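 Radiometric 33P incorporation into SAM68 peptide (D332-443) with filter capture and scintillation counting; 10 min pre-incubation then 10 min reaction at 25° C. IC50 format: 30 nM Itk, 15 μM ATP, 2 μM peptide, HEPES pH 7.5. Ki(app) format: 50 nM Itk, 7.5 μM ATP, 3 μM peptide, MOPS pH 7.0.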

c-Met = c-Met (Homo sapiens, UniProt P08581); assay: c-Met Inhibition Assay, coupled enzyme system; details: enzyme inhibition data (Ki), Table 11
Sequence of c-Met (P08581 25-1390): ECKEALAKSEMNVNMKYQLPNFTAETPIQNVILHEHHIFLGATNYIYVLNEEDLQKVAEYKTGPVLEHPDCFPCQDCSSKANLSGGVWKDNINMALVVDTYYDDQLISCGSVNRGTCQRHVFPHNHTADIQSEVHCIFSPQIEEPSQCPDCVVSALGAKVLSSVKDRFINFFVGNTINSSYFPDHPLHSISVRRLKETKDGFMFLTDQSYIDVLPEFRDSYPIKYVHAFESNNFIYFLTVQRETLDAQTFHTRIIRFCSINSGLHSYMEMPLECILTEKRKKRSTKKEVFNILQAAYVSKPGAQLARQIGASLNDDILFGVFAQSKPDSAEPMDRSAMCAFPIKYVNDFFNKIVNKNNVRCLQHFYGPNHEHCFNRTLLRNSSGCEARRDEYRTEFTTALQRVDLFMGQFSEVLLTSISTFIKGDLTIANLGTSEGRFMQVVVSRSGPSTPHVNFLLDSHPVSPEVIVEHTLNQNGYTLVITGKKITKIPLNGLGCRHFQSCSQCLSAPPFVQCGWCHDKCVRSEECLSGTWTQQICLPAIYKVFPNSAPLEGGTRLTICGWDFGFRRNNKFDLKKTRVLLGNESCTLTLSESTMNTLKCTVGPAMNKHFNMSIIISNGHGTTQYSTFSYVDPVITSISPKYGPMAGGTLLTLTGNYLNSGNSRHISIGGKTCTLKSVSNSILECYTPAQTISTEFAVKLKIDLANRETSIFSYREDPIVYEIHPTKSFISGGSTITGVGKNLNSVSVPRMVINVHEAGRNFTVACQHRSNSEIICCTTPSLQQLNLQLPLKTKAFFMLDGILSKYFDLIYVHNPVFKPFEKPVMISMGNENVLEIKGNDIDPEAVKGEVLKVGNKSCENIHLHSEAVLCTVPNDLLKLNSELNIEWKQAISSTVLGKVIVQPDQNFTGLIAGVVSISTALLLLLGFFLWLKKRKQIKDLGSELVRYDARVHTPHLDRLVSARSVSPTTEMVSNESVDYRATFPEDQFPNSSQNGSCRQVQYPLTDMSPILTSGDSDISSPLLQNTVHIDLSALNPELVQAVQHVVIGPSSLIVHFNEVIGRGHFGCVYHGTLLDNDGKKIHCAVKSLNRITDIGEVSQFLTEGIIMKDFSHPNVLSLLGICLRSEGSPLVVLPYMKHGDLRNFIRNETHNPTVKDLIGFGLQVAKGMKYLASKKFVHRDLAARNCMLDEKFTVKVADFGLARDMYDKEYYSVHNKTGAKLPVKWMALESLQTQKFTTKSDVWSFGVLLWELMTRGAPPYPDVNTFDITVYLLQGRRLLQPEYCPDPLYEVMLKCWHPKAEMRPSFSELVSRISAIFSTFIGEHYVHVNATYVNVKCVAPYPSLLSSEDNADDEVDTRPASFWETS
How it was run: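 Pyruvate kinase/lactate dehydrogenase-coupled NADH assay in HEPES pH 7.5 with 80 nM c-Met, 200 μM ATP and 10 μM polyGluTyr at 30° C. Compound (0.006–12.5 μM final, 12-point) preincubated 10 min before ATP start; rates over 10 min gave Ki.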

| Ki (JAK3) [nM] | Ki (Itk) [nM] | Ki (c-Met) [nM] | SMILES |
| --- | --- | --- | --- |
| 500 to 5000 | < 500 | < 500 | CCCN(CCCN)C(=O)c1cccc(-c2cnc3c(-c4ccccn4)c(N)nn3c2)n1 [Compound V-122] |
| > 5000 | 500 to 5000 | < 500 | Nc1nn2cc(-c3cccc(C(=O)N4CCC4)n3)cnc2c1-c1ccccn1 [Compound V-123] |
| > 5000 | 500 to 5000 | < 500 | CC(C)CN(C)C(=O)c1cccc(-c2cnc3c(-c4ccccn4)c(N)nn3c2)n1 [Compound V-125] |
| > 5000 | 500 to 5000 | < 500 | CCN(CCN)C(=O)c1cccc(-c2cnc3c(-c4ccccn4)c(N)nn3c2)n1 [Compound V-126] |
| > 5000 | 500 to 5000 | < 500 | CCN(CCO)C(=O)c1cccc(-c2cnc3c(-c4ccccn4)c(N)nn3c2)n1 [Compound V-128] |
| 500 to 5000 | 500 to 5000 | 500 to 5000 | Nc1nn2cc(-c3ccncc3)cnc2c1C(=O)c1ccccc1 [Compound V-131] |
| > 5000 | 500 to 5000 | 500 to 5000 | Nc1nn2cc(-c3ccncn3)cnc2c1-c1nncn1Cc1ccc(Cl)c(Cl)c1 [Compound V-136] |
| > 5000 | 500 to 5000 | 500 to 5000 | Nc1nn2cc(-c3ccncc3)cnc2c1-c1cccc(Br)n1 [Compound V-137] |
| > 5000 | 500 to 5000 | 500 to 5000 | Nc1nn2cc(-c3ccncc3)cnc2c1-c1cccc(NCCC2=CCCCC2)n1 [Compound V-138] |
| > 5000 | 500 to 5000 | < 500 | Nc1nn2cc(-c3cccc(C(=O)N4CCCC(O)C4)n3)cnc2c1-c1ccccn1 (stereo not drawn) [Compound V-140] |
| > 5000 | 500 to 5000 | < 500 | Nc1nn2cc(-c3cccc(C(=O)N4CCC(CCO)CC4)n3)cnc2c1-c1ccccn1 [Compound V-141] |
| 500 to 5000 | 500 to 5000 | < 500 | CN(CC1OCCO1)C(=O)c1cccc(-c2cnc3c(-c4ccccn4)c(N)nn3c2)n1 [Compound V-142] |
| > 5000 | 500 to 5000 | < 500 | Nc1nn2cc(-c3ccc(N4CCOCC4)nc3)cnc2c1-c1ccccn1 [Compound V-144] |
| > 5000 | < 500 | < 500 | CN1CCN(c2ccc(-c3cnc4c(-c5ccccn5)c(N)nn4c3)cn2)CC1 [Compound V-145] |
| > 5000 | 500 to 5000 | 500 to 5000 | Nc1nn2cc(-c3ccc(N4CCCCC4)nc3)cnc2c1-c1ccccn1 [Compound V-147] |
| 500 to 5000 | < 500 | < 500 | Nc1nn2cc(-c3ccc(N4CCN(CCO)CC4)nc3)cnc2c1-c1ccccn1 [Compound V-148] |
| 500 to 5000 | 500 to 5000 | < 500 | CC(=O)N1CCN(c2ccc(-c3cnc4c(-c5ccccn5)c(N)nn4c3)cn2)CC1 [Compound V-149] |
| > 5000 | < 500 | < 500 | Nc1nn2cc(-c3ccc(N4CCN(CCOCCO)CC4)nc3)cnc2c1-c1ccccn1 [Compound V-150] |
| 500 to 5000 | < 500 | < 500 | Nc1nn2cc(-c3ccc(C(=O)N4CCC[C@@H]4CN4CCCC4)cn3)cnc2c1-c1ccccn1 [Compound V-153] |
| > 5000 | < 500 | < 500 | CCN(CCN)c1ccc(-c2cnc3c(-c4ccccn4)c(N)nn3c2)cn1 [Compound V-157] |

| Ki (JAK3) [nM] | Ki (Itk) [nM] | Ki (c-Met) [nM] | SMILES |
| --- | --- | --- | --- |
| > 5000 | 500 to 5000 | < 500 | CCCN(CCO)c1ccc(-c2cnc3c(-c4ccccn4)c(N)nn3c2)cn1 [Compound V-158] |
| > 5000 | 500 to 5000 | < 500 | Nc1nn2cc(-c3ccc(NCCCC4=NCC=N4)nc3)cnc2c1-c1ccccn1 [Compound V-161] |
| > 5000 | 500 to 5000 | 500 to 5000 | Nc1nn2cc(-c3ccc(N4CCN(c5cnccn5)CC4)nc3)cnc2c1-c1ccccn1 [Compound V-162] |
| > 5000 | 500 to 5000 | < 500 | Nc1nn2cc(-c3ccc(N4CCN(Cc5ccncc5)CC4)nc3)cnc2c1-c1ccccn1 [Compound V-163] |
| > 5000 | < 500 | < 500 | Nc1nn2cc(-c3ccc(N4CCC(N5CCCC5)CC4)nc3)cnc2c1-c1ccccn1 [Compound V-164] |
| > 5000 | 500 to 5000 | < 500 | CCOC(=O)C1CCCN(c2ccc(-c3cnc4c(-c5ccccn5)c(N)nn4c3)cn2)C1 (stereo not drawn) [Compound V-167] |
| > 5000 | 500 to 5000 | 500 to 5000 | CN(CCc1ccccn1)c1ccc(-c2cnc3c(-c4ccccn4)c(N)nn3c2)cn1 [Compound V-168] |
| > 5000 | < 500 | < 500 | CN1CCC(N(C)c2ccc(-c3cnc4c(-c5ccccn5)c(N)nn4c3)cn2)CC1 [Compound V-169] |
| > 5000 | 500 to 5000 | 500 to 5000 | Nc1nn2cc(-c3ccc(N4CCSCC4)nc3)cnc2c1-c1ccccn1 [Compound V-170] |
| > 5000 | 500 to 5000 | < 500 | CCN(C)c1ccc(-c2cnc3c(-c4ccccn4)c(N)nn3c2)cn1 [Compound V-171] |
| > 5000 | 500 to 5000 | 500 to 5000 | CC(C)CN(C)c1ccc(-c2cnc3c(-c4ccccn4)c(N)nn3c2)cn1 [Compound V-172] |
| > 5000 | 500 to 5000 | 500 to 5000 | CCOC(=O)N1CCN(c2ccc(-c3cnc4c(-c5ccccn5)c(N)nn4c3)cn2)CC1 [Compound V-174] |
| > 5000 | < 500 | 500 to 5000 | COc1ccc(-c2cnc3c(-c4ccccc4)c(N)nn3c2)cc1 [Compound V-186] |
| > 5000 | 500 to 5000 | < 500 | Nc1nn2cc(-c3ccncc3)cnc2c1-c1ccccc1 [Compound V-187] |
| > 5000 | < 500 | < 500 | N#Cc1cccc(-c2cnc3c(-c4ccccn4)c(N)nn3c2)c1 [Compound V-197] |
| > 5000 | 500 to 5000 | 500 to 5000 | Nc1nn2cc(C(=O)NCCc3ccccc3)cnc2c1-c1ccccn1 [Compound V-198] |
| > 5000 | 500 to 5000 | 500 to 5000 | Nc1ccc(CNC(=O)c2cnc3c(-c4ccccn4)c(N)nn3c2)cc1 [Compound V-199] |
| > 5000 | 500 to 5000 | 500 to 5000 | Nc1nn2cc(C(=O)NCc3cccnc3)cnc2c1-c1ccccn1 [Compound V-200] |
| > 5000 | 500 to 5000 | 500 to 5000 | CC(C)(C)OC(=O)N1CCC(CNC(=O)c2cnc3c(-c4ccccn4)c(N)nn3c2)CC1 [Compound V-201] |
